# “And” between values parts separate entries of the source, which are not always exact repeats. Equal entries are not always repeated. The source made the active and inactive calls.
# Molecular target: T1, Cytochrome P450 1A2 (Homo sapiens, UniProt P05177);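 note: PubChem cytochrome P450 panel assay, CYP1A2 panel member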
# T1 sequence (P05177 whole entry): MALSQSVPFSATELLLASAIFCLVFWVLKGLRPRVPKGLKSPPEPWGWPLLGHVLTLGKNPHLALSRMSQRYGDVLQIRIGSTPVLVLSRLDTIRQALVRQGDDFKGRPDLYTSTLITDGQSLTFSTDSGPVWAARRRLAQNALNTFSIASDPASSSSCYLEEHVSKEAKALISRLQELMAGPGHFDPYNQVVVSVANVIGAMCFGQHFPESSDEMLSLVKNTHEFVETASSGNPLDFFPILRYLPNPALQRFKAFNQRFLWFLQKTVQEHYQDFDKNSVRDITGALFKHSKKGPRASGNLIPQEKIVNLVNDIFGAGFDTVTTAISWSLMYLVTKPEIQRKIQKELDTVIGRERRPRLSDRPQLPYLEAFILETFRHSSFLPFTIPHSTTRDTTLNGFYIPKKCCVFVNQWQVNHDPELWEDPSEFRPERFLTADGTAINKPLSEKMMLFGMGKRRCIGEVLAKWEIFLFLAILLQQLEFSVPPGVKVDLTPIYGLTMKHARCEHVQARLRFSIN
# Settings: not given
row,SMILES,AC50
1,O=C(C1CCC(=O)N1Cc1ccccc1Cl)N1CCN(c2ccc(F)cc2)CC1 (stereo unspecified),2.51 µM (inconclusive)
2,CN(Cc1ccco1)c1ncncc1-c1ccccc1C(F)(F)F,12.6 µM (inconclusive)
3,CCN(CCCl)Cc1ccccc1Br,15.8 µM (inconclusive)

# Molecular target: Cytochrome P450 2C19 (Homo sapiens, UniProt P33261)
# Assay: Cytochrome panel assay with activity outcomes. Panel member name: p450-cyp2c19 Compounds with AC50 equal or less than 10 uM are considered active
# Assay type: functional
# Settings: read-out: AC50
# Cytochrome P450 2C19, sequence (P33261 whole entry): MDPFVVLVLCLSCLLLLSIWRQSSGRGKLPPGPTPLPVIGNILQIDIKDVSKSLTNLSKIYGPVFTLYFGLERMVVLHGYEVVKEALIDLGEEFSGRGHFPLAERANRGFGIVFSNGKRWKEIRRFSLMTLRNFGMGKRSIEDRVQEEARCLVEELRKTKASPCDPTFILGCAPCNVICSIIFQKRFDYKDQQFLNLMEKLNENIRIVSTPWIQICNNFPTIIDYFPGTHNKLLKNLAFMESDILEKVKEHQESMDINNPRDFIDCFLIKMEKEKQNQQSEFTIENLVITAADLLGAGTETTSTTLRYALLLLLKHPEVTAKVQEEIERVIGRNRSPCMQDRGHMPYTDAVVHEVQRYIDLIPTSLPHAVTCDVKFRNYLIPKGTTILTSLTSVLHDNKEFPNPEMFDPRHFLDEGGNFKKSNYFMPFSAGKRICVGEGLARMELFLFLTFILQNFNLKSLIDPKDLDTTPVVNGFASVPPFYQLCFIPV
row,SMILES,AC50
1,C#CCCCCCCCCCCCCCCCC(=O)O,25.1 µM (inconclusive)
2,O=C(C1CCC(=O)N1Cc1ccccc1Cl)N1CCN(c2ccc(F)cc2)CC1 (stereo unspecified),20 µM (inconclusive)
3,CCN(CCCl)Cc1ccccc1Br,39.8 µM (inconclusive)
4,C[C@H](NC(C)(C)C)C(=O)c1cccc(Cl)c1,15.8 µM (inconclusive) and 3.16 µM (inconclusive)
5,O=c1cnc2cnc(N3CCOCC3)nc2n1Cc1cccs1,31.6 µM (inconclusive)

# Test system: not listed separately
# Assay: HEp-2 cell cytotoxicity, dose response, cytotoxicity control for RSV inhibitor project, HTS (AID 2410)
# Assay type: functional
# Settings: human respiratory syncytial virus
row,SMILES,CC50
1,CC(C)c1nc(SCc2c(F)cccc2Cl)c2c(=O)n(C)c(=O)n(C)c2n1,7.44 µM (active)
2,COc1ccc(C(=O)/C=C/c2ccccc2OC)c(OC(=O)c2ccc([N+](=O)[O-])cc2)c1,19.1 µM (active)
3,N#Cc1nc(Cc2ccccc2)oc1NCCc1ccccc1,28.9 µM (active)
4,COc1c(C)cc(Br)cc1C(=O)Nc1ccccc1N1CCN(C(=O)c2ccccc2)CC1,31.5 µM (active)
5,Fc1ccc(Cn2nnnc2CN2CCC(n3nnc4cc(C(F)(F)F)ccc43)CC2)cc1,15 µM (active)
6,C[C@]12CC[C@@H]3c4ccc(O)cc4CC[C@H]3[C@@H]1CCC2=O [ESTRONE],33 µM (active)
7,CSc1nnc(C)c(/C=C/Nc2ccc(Cl)cc2)n1,> 50 µM (active)
8,Cc1cc(Cl)ccc1Oc1cccc(C(=O)/C(C#N)=C/N(C)C)c1,29.1 µM (active)

# Molecular target: T2, RNA-binding protein pos-1 (Caenorhabditis elegans, UniProt G5EF15)
# T2 sequence (G5EF15 whole entry): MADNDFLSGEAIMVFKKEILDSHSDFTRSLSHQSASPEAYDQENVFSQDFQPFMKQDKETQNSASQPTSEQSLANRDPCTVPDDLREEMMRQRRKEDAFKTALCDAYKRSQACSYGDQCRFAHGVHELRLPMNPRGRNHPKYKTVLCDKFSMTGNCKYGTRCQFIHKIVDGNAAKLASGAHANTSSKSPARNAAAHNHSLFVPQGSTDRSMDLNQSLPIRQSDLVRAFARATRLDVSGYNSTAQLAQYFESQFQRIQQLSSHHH
# Assay: inhibitors of POS-1/mex-3 RNA binding, dose response, biochemical, fluorescence polarization (AID 1964);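 note: purified POS-1 fused to maltose binding protein made in E. coli; potency of compounds blocking POS-1 binding to fluorescent RNA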
# Settings: not given
row,SMILES,EC50
1,CC(=O)/N=c1\c(C#N)cc2c(=O)n3cccc(C)c3nc2n1CCCOC(C)C,> 300 µM (not active)
2,Cn1ncc2c(NNC(=O)Cc3ccccc3)ncnc21,> 300 µM (not active)
3,COc1ccc2c(c1)C1C=CCC1C(c1cc3c(cc1Br)OCO3)N2 (stereo unspecified),> 300 µM (not active)
4,CCOC(=O)c1c(-n2c(C)cc(/C=C3/C(=O)NC(=O)N(CC)C3=O)c2C)sc2c1CCCC2,25.1 µM (active)
5,C=CCn1cc(C=C2C(=O)NC(=O)NC2=O)c2ccccc21,> 300 µM (not active)
6,Cc1c(N/C=C2\C(=O)NC(=O)N(Cc3ccco3)C2=O)c(=O)n(-c2ccccc2)n1C,> 300 µM (not active)

# Molecular target: Cytochrome P450 2D6 (Homo sapiens, UniProt P10635);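 note: CYP2D6 member of a cytochrome P450 panel assay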
# Settings: not given
# Cytochrome P450 2D6, sequence (P10635 whole entry): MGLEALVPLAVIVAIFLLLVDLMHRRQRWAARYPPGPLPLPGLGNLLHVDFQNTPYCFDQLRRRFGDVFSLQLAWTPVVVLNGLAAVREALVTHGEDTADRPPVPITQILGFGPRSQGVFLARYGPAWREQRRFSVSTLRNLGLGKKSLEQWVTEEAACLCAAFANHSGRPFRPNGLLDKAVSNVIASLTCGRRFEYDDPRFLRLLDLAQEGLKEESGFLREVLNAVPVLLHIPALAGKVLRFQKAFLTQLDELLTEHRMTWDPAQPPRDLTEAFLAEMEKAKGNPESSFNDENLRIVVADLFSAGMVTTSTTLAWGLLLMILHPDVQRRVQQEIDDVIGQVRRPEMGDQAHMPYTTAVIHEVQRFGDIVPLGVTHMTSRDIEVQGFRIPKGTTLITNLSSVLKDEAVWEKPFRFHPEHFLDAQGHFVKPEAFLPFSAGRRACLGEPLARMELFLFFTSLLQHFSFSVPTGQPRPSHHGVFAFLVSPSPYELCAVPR
row,SMILES,AC50
1,C#CCCCCCCCCCCCCCCCC(=O)O,20 µM (inconclusive)
2,O=C(C1CCC(=O)N1Cc1ccccc1Cl)N1CCN(c2ccc(F)cc2)CC1 (stereo unspecified),15.8 µM (inconclusive)
3,CN(Cc1ccco1)c1ncncc1-c1ccccc1C(F)(F)F,20 µM (inconclusive)
4,CCN(CCCl)Cc1ccccc1Br,12.6 µM (inconclusive)
5,C[C@H](NC(C)(C)C)C(=O)c1cccc(Cl)c1,31.6 µM (inconclusive) and 6.31 µM (inconclusive)
6,O=c1cnc2cnc(N3CCOCC3)nc2n1Cc1cccs1,25.1 µM (inconclusive)

# Test system: not listed separately
# Assay: Luminescence Cell-Based Dose Confirmation HTS to Identify Activators of 5'UTR Stem-Loop Driven Alpha-Synuclein mRNA Translation in H4 Neuroglioblastoma Cells. [Related pubchem assays: 1829 (Project Summary), 1814 (Primary HTS)]
# Assay type: functional
# Settings: not given
row,SMILES,EC50
1,COc1ccc(C(=O)/C=C/c2ccccc2OC)c(OC(=O)c2ccc([N+](=O)[O-])cc2)c1,17.3 µM (active)
2,N#Cc1nc(Cc2ccccc2)oc1NCCc1ccccc1,4.71 µM (active)

# Molecular target: Cytochrome P450 2C9 (Homo sapiens, UniProt P11712)
# Settings: not given
# Cytochrome P450 2C9, sequence (P11712 whole entry): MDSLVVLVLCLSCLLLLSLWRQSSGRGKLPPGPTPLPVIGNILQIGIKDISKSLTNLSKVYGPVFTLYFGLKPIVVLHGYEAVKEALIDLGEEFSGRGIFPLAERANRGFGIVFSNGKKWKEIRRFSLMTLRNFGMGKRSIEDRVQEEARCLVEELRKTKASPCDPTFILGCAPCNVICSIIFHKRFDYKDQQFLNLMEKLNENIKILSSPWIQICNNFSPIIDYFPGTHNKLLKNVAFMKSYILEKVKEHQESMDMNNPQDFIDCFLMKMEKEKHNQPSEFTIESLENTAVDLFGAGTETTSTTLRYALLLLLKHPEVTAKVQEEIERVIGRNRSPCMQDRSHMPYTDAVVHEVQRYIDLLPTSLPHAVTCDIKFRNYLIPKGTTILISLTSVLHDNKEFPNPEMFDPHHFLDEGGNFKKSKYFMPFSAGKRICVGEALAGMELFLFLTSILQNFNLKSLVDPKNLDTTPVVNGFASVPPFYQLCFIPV
row,SMILES,AC50
1,O=C(C1CCC(=O)N1Cc1ccccc1Cl)N1CCN(c2ccc(F)cc2)CC1 (stereo unspecified),25.1 µM (inconclusive)
2,O=c1cnc2cnc(N3CCOCC3)nc2n1Cc1cccs1,31.6 µM (inconclusive)

# Molecular target: T3, Zinc finger protein mex-5 (Caenorhabditis elegans, UniProt Q9XUB2)
# T3 sequence (Q9XUB2 whole entry): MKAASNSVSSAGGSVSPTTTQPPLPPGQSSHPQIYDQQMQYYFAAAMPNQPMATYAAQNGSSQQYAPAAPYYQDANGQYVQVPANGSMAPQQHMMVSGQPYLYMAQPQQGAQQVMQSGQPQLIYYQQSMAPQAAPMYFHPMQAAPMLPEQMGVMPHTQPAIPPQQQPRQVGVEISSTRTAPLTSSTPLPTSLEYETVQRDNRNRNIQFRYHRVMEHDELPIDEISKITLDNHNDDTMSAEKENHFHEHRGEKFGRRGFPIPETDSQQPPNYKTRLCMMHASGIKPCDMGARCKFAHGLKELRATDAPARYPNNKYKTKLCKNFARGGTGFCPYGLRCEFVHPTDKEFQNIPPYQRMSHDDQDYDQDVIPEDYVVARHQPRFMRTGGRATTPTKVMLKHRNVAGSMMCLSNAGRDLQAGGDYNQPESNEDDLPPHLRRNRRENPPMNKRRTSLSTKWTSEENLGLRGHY
# Assay: MEX-5/TCR-2 RNA interaction inhibitors, dose response, biochemical, C. elegans, fluorescence polarization (AID 1960)
# Settings: not given
row,SMILES,EC50
1,Cn1ncc2c(NNC(=O)Cc3ccccc3)ncnc21,10.5 µM (active)
2,COc1ccc2c(c1)C1C=CCC1C(c1cc3c(cc1Br)OCO3)N2 (stereo unspecified),47.9 µM (active)
3,CCOC(=O)c1c(-n2c(C)cc(/C=C3/C(=O)NC(=O)N(CC)C3=O)c2C)sc2c1CCCC2,29.8 µM (active)
4,C=CCn1cc(C=C2C(=O)NC(=O)NC2=O)c2ccccc21,112 µM (inconclusive)
5,Cc1c(N/C=C2\C(=O)NC(=O)N(Cc3ccco3)C2=O)c(=O)n(-c2ccccc2)n1C,> 300 µM (not active)

# Molecular target: Cytochrome P450 3A4 (Homo sapiens, UniProt P08684);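 note: CYP3A4 tested as one member of a cytochrome P450 panel screen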
# Settings: not given
# Cytochrome P450 3A4, sequence (P08684 whole entry): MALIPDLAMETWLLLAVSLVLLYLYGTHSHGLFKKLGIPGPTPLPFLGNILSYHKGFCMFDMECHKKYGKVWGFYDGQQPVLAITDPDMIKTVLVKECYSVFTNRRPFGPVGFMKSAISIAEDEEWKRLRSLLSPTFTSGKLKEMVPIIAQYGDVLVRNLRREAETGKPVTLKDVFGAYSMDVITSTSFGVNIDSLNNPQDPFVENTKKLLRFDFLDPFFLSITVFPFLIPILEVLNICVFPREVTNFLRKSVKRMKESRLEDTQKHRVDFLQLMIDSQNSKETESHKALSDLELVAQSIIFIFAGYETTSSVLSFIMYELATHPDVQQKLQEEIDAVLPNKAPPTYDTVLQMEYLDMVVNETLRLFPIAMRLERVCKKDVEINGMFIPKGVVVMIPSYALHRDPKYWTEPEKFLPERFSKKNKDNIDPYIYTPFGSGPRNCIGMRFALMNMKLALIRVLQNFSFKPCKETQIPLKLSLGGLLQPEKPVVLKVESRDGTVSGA
row,SMILES,AC50
1,O=C(C1CCC(=O)N1Cc1ccccc1Cl)N1CCN(c2ccc(F)cc2)CC1 (stereo unspecified),12.6 µM (inconclusive)
2,O=c1cnc2cnc(N3CCOCC3)nc2n1Cc1cccs1,15.8 µM (inconclusive)

# Test system: not listed separately
# Assay: cytotoxicity toward NIH3T3 fibroblasts, dose response, counter-screen, cell-based, ATP luminescence, mouse fibroblasts (AID 2010);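 note: cells exposed to compound for about 90 hours before reading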
# Assay type: functional
# Settings: not given
row,SMILES,EC50
1,COc1c(C)cc(Br)cc1C(=O)Nc1ccccc1N1CCN(C(=O)c2ccccc2)CC1,> 60 µM (not active)

# Test system: H4
# Assay: Luminescence Cell-Based Dose Response HTS to Identify Activators of 5'UTR Stem-Loop Driven Prion Protein mRNA Translation in H4 Neuroglioblastoma Cells. [Related pubchem assays: 1829 (Project Summary), 1814 (Primary HTS)]
# Assay type: functional
# Settings: Homo sapiens
row,SMILES,EC50
1,COc1ccc(C(=O)/C=C/c2ccccc2OC)c(OC(=O)c2ccc([N+](=O)[O-])cc2)c1,54.1 µM (inconclusive)
2,N#Cc1nc(Cc2ccccc2)oc1NCCc1ccccc1,14.5 µM (active)

# Test system: not listed separately
# Assay: inhibitors of intracellular T. cruzi replication, confirmation, NIH3T3 host cells, beta-gal luminescence (AID 2044);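 note: intracellular parasites grown in NIH/3T3 mouse fibroblasts as host cells; luminescent beta-galactosidase reporter signal from transgenic T. cruzi replicating inside host cells; inhibitors lower the luminescence signal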
# Assay type: functional, cell-based
# Settings: not given
row,SMILES,EC50
1,COc1c(C)cc(Br)cc1C(=O)Nc1ccccc1N1CCN(C(=O)c2ccccc2)CC1,2.52 µM (active)

# Molecular target: T4, Heat shock factor protein 1 (Mus musculus, UniProt P38532)
# T4 sequence (P38532 whole entry): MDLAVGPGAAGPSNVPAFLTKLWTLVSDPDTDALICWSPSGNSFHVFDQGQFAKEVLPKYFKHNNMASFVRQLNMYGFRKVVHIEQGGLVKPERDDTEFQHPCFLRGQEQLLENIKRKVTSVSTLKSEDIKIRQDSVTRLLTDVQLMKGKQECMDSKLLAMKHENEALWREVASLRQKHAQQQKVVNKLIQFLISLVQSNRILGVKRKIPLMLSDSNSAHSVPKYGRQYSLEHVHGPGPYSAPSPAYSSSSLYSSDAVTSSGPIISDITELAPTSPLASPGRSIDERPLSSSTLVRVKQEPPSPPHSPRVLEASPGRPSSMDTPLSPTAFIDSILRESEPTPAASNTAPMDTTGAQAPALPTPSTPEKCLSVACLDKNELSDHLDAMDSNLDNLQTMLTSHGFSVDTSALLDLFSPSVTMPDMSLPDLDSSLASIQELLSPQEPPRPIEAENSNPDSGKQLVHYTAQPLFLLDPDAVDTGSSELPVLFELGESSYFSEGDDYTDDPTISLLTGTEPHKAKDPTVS
# Assay: inhibition of MG132-induced HSE-luciferase signal, confirmation, cell-based, NIH3T3, luminescence, dose retest (AID 2382);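 note: NIH3T3 fibroblasts with HSF1-driven luciferase reporter stressed by proteasome inhibitor MG132; luminescence from HSF1-driven luciferase expression after 8 hours of MG132 stress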
# Assay type: functional
# Settings: not given
row,SMILES,EC50
1,CC(C)c1nc(SCc2c(F)cccc2Cl)c2c(=O)n(C)c(=O)n(C)c2n1,> 195 µM (not active)

# Test system: not listed separately
# Assay: Luminescence Cell-Based Dose Response HTS to Identify Activators of Luciferase Translation or Activity in H4 […] Cells. [Related pubchem assays: 1829 (Project Summary), 1814 (Primary HTS)]
# Assay type: functional
# Settings: not given
row,SMILES,EC50
1,COc1ccc(C(=O)/C=C/c2ccccc2OC)c(OC(=O)c2ccc([N+](=O)[O-])cc2)c1,23.8 µM (active)
2,N#Cc1nc(Cc2ccccc2)oc1NCCc1ccccc1,56.9 µM (active)

# Reference: ChEMBL document CHEMBL1201862, “PubChem BioAssay data set” (2004)
